Several values for one entry are separate records, joined by “and”; a condition that tells them apart may be missing. Identical values can stand only once.

Test [1] has as its target T1, IRP2 binding to Ferritin-L IRE (Homo sapiens, UniProt P48200).
T1 construct: when expressed in endogenous levels; endogenous in cells; host or cells: 786-O
Nature of the test: Electrophoretic mobility shift assay, Ferritin L IRE probe. Particulars: 786-O lysates, EMSA. Here is the method:
EMSAs were performed as described previously (Fillebeen et al., 2003). Briefly, 50 μg lysate from 786-O cells treated with medium only, DMSO, or compounds were incubated with 25,000 cpm wild-type or mutant radiolabeled HIF-2a IRE probe for 20 minutes at room temperature before loading onto non-denaturing acrylamide gels. Supershifts were performed identically, save that 0.2 μg control, IRP1 or IRP2 antibodies were also added. Total protein content was estimated by Bradford Assay (BioRad, 500-0006), and even loading for all experiments was confirmed by Western blot for B-Actin.
Inventors discovered that compound 76 increased the residual amount of IRP1 bound to the HIF-2a IRE in hypoxia, although not to the same extent as that observed in normoxic cells. […] Lastly, to further investigate the involvement of IRP2 in HIF-2a IRE, the inventors compared side by side IRP2 binding to HIF-2a and Ferritin-L IRE in 786-O cells, in conditions of normoxia or hypoxia and after treatment with compound 76 or DFO (FIG. 7E). While IRP2 binding was clearly detected on Ferritin IRE, the inventors were not able to detect measurable IRP2 binding on HIF-2a IRE.

For test [2], the system named is Fli1-GFP fish embryo. As to the kind of experiment: Inhibition of vascularization in fish embryo. Particulars: 3microM; treated at 20 hpf, imaged 48-50 hpf.
Test [3] deals with IRP1. As to the kind of experiment: IRP1 expression in treated cells. It counts as cell-based, human. From the text:
The inventors next tested the effect of hypoxia on the binding of IRP1 to the HIF-2a wild-type IRE. […] This is due to decreased mRNA binding, as western blots confirm that neither compound application nor hypoxia affects IRP1 protein expression. The involvement of IRP1 was further confirmed with super-shifting experiments with IRP1 antibody (FIG. 7C). No supershifted bands were observed using IRP2 antibody.
However, IRP2 contributes very little—if at all—to the total IRP bound to the HIF2a IRE (Zimmer et al., 2008).

T1 sequence (P48200 whole entry): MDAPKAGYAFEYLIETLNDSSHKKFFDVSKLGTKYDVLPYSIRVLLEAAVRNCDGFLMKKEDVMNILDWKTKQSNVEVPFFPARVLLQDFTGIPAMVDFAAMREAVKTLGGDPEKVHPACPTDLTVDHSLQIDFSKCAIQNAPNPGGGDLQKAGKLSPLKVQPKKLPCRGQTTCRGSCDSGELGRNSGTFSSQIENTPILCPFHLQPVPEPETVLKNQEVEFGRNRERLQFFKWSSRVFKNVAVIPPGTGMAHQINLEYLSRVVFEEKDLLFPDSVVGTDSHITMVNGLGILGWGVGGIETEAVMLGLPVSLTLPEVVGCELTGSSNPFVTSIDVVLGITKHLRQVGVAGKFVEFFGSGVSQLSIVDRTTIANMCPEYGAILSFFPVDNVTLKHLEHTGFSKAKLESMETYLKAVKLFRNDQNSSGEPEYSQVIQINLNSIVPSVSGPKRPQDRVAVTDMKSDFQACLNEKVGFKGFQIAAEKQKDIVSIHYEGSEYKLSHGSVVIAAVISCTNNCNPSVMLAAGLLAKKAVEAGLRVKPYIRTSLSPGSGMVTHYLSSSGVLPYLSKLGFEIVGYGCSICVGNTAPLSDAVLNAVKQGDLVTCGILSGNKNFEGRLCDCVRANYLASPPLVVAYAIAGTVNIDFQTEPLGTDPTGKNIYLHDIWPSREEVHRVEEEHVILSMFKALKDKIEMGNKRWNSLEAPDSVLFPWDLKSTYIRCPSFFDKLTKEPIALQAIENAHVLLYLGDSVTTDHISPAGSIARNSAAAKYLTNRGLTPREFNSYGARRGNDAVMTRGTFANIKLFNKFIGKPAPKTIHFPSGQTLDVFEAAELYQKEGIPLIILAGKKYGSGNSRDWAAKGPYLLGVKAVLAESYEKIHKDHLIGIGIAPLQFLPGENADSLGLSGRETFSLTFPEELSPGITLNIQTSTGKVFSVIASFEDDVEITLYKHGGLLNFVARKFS

`COC(=O)c1sccc1N/N=C(/C#N)S(C)(=O)=O` [Compound 76, methyl 3-{2-[cyano(methylsulfonyl)methylene] hydrazino}thiophene-2-carboxylate]: the “binding of IRP2 to Ferritin-L IRE” value in test [1] is on record as “slightly enhanced”.
For the compound `CCCCC/C=C/C=C1/C(=O)C=C[C@@H]1C/C=C\CCCC(=O)O` [PGJ2, 15-deoxy-Δ^12,14-prostaglandin J2], in test [2], the “Totals: Completed” value turned out to be 47; the “Totals: stalled” value came out at 39; the “completed of total, per animal” value was 6 of 17 (2×) and 17 of 18 and 9 of 17 (2×). Besides, in test [3], the IRP1 expression entry was “not affected”.

These data come from patent publication US10881656B2, “HIF inhibitors and use thereof” (The General Hospital Corporation, priority 2008, dated 2021).
